From ChEMBL document CHEMBL5360622, “Leucettinibs, a Class of DYRK/CLK Kinase Inhibitors Inspired by the Marine Sponge Natural Product Leucettamine B” (J Med Chem, 2023)

Tests used:
[1] = target: BMP-2-inducible protein kinase (Homo sapiens) (UniProt Q9NSY1); settings: dose 10.0 µM
[2] = target: T1, Dual specificity tyrosine-phosphorylation-regulated kinase 3 (Homo sapiens, UniProt O43781)
T1 sequence (O43781 whole entry): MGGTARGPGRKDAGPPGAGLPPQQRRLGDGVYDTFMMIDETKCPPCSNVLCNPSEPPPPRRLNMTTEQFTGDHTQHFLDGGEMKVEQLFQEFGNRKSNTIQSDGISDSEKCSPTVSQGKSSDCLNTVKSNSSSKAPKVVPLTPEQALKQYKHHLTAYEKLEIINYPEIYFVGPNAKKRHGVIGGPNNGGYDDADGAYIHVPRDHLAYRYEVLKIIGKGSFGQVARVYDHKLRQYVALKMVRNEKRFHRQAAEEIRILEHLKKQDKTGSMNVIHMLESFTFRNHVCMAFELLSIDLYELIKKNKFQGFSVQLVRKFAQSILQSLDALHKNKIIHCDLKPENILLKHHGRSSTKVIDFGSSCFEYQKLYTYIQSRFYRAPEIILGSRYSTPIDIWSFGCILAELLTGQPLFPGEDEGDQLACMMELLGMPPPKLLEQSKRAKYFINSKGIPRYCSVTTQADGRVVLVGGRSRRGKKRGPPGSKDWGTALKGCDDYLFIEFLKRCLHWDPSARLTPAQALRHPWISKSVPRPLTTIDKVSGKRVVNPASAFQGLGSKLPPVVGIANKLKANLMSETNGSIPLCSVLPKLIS

[3] = target: Myotonin-protein kinase (Homo sapiens) (UniProt Q09013); settings: dose 10.0 µM
[4] = target: T2, Dual specificity tyrosine-phosphorylation-regulated kinase 1A (Homo sapiens, UniProt Q13627); settings: dose 10.0 µM
[5] = target: Glycogen synthase kinase-3 beta (Homo sapiens, UniProt P49841); settings: dose 10.0 µM
[6] = target: Dual specificity protein kinase CLK2 (Homo sapiens, UniProt P49760)
[7] = target: Casein kinase I isoform delta (Homo sapiens) (UniProt P48730); settings: dose 10.0 µM
[8] = target: Aurora kinase A (Homo sapiens) (UniProt O14965); settings: dose 10.0 µM
[9] = target: T2, Dual specificity tyrosine-phosphorylation-regulated kinase 1A
[10] = target: Calcium/calmodulin-dependent protein kinase kinase 2 (Homo sapiens) (UniProt Q96RR4); settings: dose 10.0 µM
[11] = target: T3, Dual specificity protein kinase CLK3 (Homo sapiens, UniProt P49761); assay type: cell-based, Sf9
[12] = target: Serine/threonine-protein kinase pim-3 (Homo sapiens) (UniProt Q86V86); settings: dose 10.0 µM
[13] = target: T4, Casein kinase I isoform epsilon (Homo sapiens, UniProt P49674); settings: dose 10.0 µM
[14] = target: Dual specificity protein kinase CLK4 (Homo sapiens, UniProt Q9HAZ1)
[15] = target: Homeodomain-interacting protein kinase 2 (Homo sapiens) (UniProt Q9H2X6); settings: dose 10.0 µM
[16] = target: T5, Dual specificity tyrosine-phosphorylation-regulated kinase 2 (Homo sapiens, UniProt Q92630)
T5 sequence (Q92630 whole entry): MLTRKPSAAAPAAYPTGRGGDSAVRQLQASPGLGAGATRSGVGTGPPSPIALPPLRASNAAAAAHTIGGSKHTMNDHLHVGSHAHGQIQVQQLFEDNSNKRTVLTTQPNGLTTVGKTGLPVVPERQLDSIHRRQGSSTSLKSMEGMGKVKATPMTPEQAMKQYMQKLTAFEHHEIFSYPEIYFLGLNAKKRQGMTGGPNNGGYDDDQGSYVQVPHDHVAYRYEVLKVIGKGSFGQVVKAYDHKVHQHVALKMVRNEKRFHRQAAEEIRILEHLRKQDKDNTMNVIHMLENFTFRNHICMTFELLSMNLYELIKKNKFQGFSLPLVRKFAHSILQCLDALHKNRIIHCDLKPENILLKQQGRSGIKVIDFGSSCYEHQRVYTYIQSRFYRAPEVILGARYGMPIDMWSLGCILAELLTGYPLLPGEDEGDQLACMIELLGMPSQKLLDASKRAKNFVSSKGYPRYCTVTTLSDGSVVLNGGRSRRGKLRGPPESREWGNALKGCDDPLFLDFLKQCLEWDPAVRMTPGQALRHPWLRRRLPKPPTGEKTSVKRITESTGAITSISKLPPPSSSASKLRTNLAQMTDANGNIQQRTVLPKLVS

[17] = target: Dual specificity protein kinase CLK1 (Homo sapiens, UniProt P49759); settings: dose 10.0 µM
[18] = target: Cyclin-dependent kinase 5/CDK5 activator 1 (Homo sapiens, UniProt Q00535); assay type: cell-based, Sf9
[19] = target: AP2-associated protein kinase 1 (Homo sapiens) (UniProt Q2M2I8); settings: dose 10.0 µM
[20] = target: T3, Dual specificity protein kinase CLK3; settings: dose 10.0 µM
[21] = target: T4, Casein kinase I isoform epsilon
Target sequence in this assay (P49674 whole entry, canonical isoform): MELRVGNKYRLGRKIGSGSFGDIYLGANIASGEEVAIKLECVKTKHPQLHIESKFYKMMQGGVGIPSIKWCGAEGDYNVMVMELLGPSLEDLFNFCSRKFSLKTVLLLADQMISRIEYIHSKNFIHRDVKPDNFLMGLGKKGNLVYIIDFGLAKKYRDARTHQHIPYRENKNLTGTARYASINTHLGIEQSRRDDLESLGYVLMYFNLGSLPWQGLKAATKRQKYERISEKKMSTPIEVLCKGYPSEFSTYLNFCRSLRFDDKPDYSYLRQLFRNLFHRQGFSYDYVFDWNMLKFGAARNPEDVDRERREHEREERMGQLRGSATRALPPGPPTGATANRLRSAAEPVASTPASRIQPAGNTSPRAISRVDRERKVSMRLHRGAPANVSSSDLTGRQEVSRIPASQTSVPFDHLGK

[22] = target: T6, Dual specificity tyrosine-phosphorylation-regulated kinase 4 (Homo sapiens, UniProt Q9NR20)
T6 sequence (Q9NR20 whole entry): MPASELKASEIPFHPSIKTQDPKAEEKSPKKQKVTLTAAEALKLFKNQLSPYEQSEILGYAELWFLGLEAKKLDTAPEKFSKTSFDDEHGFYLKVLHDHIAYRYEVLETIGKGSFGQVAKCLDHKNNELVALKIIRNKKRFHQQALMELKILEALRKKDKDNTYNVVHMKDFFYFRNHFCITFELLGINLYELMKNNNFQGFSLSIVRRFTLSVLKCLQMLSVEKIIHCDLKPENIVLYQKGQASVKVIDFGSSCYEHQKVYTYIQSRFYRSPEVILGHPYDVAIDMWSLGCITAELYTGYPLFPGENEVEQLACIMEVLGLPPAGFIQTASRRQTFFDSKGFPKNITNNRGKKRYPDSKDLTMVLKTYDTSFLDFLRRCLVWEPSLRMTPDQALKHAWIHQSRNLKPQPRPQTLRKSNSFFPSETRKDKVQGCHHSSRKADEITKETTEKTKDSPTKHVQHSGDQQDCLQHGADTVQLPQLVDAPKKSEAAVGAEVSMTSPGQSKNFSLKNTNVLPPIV

Sequence of Aurora kinase A (Homo sapiens) (O14965 whole entry): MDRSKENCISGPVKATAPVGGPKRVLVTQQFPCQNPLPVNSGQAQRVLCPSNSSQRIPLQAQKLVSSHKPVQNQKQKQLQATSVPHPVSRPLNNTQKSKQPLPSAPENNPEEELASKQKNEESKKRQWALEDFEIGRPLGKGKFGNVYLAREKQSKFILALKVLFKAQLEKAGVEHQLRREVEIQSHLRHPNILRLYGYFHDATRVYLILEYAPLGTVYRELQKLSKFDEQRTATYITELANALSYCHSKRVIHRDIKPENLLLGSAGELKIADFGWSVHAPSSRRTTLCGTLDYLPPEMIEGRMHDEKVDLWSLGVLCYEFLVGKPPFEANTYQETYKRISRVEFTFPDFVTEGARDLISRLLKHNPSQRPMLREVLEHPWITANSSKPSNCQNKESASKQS
Sequence of AP2-associated protein kinase 1 (Homo sapiens) (Q2M2I8 whole entry, looked up): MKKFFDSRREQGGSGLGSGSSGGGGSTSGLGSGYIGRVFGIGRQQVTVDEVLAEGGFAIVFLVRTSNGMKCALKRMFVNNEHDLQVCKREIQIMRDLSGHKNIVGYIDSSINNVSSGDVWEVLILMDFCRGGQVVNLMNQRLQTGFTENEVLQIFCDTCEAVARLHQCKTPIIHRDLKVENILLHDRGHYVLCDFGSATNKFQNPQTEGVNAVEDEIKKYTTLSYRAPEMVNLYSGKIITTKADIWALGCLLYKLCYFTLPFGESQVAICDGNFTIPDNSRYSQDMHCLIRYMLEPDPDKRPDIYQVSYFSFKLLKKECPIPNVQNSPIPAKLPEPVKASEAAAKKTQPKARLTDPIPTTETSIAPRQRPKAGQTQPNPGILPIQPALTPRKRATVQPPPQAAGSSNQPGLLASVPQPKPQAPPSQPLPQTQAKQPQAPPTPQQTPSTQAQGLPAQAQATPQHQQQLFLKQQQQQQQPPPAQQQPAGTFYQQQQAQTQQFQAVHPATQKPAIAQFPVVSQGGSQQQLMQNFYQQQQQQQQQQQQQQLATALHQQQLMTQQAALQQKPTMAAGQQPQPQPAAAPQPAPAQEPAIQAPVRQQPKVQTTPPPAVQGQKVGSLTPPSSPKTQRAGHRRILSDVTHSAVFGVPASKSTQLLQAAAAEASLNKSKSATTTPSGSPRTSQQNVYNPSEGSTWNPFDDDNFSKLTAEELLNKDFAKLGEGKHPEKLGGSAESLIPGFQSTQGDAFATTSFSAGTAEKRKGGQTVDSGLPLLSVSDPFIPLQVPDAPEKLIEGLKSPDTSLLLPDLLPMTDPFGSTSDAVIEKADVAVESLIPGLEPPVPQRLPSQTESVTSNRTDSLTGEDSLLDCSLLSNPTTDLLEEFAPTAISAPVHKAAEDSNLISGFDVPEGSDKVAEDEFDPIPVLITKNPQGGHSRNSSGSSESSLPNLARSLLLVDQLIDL
Sequence of Homeodomain-interacting protein kinase 2 (Homo sapiens) (Q9H2X6 whole entry, looked up): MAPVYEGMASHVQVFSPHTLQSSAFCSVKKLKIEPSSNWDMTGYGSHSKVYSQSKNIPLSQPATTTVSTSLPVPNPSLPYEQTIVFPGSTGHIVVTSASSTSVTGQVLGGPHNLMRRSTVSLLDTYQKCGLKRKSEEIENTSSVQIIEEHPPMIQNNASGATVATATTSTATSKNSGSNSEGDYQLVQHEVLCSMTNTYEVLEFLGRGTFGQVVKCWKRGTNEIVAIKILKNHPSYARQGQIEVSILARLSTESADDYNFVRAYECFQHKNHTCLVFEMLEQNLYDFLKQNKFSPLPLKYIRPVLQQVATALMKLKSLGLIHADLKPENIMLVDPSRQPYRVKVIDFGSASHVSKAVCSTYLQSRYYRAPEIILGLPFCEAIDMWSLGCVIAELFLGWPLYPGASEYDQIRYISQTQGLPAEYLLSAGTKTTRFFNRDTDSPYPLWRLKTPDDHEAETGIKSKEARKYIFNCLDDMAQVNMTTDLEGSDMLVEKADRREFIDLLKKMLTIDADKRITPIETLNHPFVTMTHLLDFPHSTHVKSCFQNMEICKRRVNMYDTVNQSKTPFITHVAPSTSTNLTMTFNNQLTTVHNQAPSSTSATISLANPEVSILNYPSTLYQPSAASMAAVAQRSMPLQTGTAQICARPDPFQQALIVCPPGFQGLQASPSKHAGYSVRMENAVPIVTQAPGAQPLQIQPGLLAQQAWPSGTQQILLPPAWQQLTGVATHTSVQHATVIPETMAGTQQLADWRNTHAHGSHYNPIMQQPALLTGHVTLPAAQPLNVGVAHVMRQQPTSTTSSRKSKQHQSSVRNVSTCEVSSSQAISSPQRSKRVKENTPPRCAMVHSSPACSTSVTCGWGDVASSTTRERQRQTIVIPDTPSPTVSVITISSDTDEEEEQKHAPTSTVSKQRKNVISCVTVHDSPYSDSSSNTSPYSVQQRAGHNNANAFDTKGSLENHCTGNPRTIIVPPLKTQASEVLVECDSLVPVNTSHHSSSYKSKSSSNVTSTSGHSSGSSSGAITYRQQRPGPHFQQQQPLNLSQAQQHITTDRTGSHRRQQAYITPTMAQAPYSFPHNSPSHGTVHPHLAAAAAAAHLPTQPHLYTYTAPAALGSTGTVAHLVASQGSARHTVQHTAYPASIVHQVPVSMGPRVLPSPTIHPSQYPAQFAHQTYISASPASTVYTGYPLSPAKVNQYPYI
Sequence of Casein kinase I isoform delta (Homo sapiens) (P48730 whole entry, looked up, canonical isoform): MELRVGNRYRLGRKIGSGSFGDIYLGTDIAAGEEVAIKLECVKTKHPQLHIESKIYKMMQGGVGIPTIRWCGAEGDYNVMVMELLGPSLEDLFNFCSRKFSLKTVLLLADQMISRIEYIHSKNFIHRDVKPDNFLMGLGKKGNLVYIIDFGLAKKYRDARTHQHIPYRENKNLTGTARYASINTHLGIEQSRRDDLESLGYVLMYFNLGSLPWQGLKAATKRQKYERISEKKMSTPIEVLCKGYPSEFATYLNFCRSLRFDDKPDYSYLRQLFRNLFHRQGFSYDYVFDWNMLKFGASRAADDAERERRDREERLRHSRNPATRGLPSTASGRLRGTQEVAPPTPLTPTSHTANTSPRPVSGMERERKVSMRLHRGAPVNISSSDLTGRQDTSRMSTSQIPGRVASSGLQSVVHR
Sequence of Glycogen synthase kinase-3 beta (P49841 whole entry, looked up): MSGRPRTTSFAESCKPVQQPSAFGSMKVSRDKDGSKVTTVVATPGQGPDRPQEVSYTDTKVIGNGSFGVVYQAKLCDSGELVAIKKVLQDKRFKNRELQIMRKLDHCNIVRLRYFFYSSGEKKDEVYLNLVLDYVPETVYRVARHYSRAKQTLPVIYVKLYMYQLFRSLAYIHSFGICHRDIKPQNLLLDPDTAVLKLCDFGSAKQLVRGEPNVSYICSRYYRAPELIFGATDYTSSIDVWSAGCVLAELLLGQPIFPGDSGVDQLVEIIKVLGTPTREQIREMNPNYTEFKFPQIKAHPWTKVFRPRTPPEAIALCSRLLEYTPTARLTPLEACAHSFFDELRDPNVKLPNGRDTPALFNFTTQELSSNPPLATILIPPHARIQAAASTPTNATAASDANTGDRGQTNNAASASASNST
Sequence of Calcium/calmodulin-dependent protein kinase kinase 2 (Homo sapiens) (Q96RR4 2-588 limits assumed): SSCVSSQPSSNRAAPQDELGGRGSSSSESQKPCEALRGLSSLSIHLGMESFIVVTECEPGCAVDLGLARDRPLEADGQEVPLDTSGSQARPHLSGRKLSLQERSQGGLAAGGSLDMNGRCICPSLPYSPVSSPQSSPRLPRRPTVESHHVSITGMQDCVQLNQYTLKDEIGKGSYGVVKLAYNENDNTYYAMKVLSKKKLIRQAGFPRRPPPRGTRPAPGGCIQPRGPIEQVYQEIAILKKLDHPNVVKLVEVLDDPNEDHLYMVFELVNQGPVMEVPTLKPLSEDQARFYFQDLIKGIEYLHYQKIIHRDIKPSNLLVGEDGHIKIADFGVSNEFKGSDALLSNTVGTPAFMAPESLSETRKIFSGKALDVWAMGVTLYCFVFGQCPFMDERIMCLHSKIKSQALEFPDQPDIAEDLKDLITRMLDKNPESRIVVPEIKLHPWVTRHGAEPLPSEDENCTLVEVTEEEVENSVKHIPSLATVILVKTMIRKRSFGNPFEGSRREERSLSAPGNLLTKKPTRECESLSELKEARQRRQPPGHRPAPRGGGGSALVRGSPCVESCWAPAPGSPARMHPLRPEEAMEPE
Sequence of Myotonin-protein kinase (Homo sapiens) (Q09013 whole entry): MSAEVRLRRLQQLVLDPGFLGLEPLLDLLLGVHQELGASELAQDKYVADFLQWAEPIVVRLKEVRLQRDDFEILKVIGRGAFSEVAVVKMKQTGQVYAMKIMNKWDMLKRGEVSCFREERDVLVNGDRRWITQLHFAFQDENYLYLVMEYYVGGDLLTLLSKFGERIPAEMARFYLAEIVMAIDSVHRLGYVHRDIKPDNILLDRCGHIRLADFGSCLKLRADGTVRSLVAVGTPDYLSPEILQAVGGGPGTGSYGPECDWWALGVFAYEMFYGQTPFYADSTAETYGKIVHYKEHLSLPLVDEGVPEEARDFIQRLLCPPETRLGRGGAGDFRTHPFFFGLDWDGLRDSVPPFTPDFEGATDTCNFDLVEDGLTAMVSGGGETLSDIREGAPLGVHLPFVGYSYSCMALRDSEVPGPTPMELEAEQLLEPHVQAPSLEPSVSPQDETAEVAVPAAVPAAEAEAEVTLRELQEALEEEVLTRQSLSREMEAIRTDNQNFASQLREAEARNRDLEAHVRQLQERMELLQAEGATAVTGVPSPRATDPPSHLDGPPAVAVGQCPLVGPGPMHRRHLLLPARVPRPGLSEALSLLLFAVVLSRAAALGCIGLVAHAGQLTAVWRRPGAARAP

O=C1NC(NC23CC4CC(CC(C4)C2)C3)=N/C1=C\c1ccc2scnc2c1
ΔTm [1]: -0.1 °C
IC50 [2]: > 10 µM
ΔTm [3]: 0.1 °C
ΔTm [4]: 3.2 °C
ΔTm [5]: 0.9 °C
IC50 [6]: 8.34 µM
ΔTm [7]: 1.4 °C
ΔTm [8]: -0.4 °C
IC50 [9]: 3.4 µM
ΔTm [10]: -0.5 °C
IC50 [11]: > 10 µM
ΔTm [12]: 1 °C
ΔTm [13]: -2.5 °C
IC50 [14]: 3.5 µM
ΔTm [15]: -0.4 °C
IC50 [16]: > 10 µM
ΔTm [17]: 2 °C
IC50 [18]: > 10 µM
ΔTm [19]: 0 °C
ΔTm [20]: -0.5 °C
IC50 [21]: > 10 µM
IC50 [22]: > 10 µM
